{"source": "paper PMC8747035", "about": "“Design, Synthesis, and Biological Evaluation of 5,6,7,8-Tetrahydrobenzo[4,5]thieno[2,3-d]pyrimidines as Microtubule Targeting Agents” (Molecules, 2022)", "key": {"UACC-257": {"system": "UACC-257", "assay": "NCI-60 growth inhibition, UACC-257", "assay_type": "cell-based", "conditions": "Homo sapiens, Melanoma", "source_text": "(§1) Compound 4 had better potency than the lead compound 1 in 50 cancer cell lines. (better by 5 to 6-fold in leukemia, 2 to 17-fold in NSCLC, 2 to 6-fold in colon cancer, 2 to 5-fold in CNS cancer, 2 to 25-fold in melanoma, 2 to 5-fold in ovarian cancer, 2 to 9-fold in renal cancer, 2 to 5-fold in prostate cancer, and 2 to 6-fold in breast cancer compared to lead compound 1)."}, "DU-145": {"system": "DU-145", "assay": "NCI-60 growth inhibition, DU-145", "assay_type": "cell-based", "conditions": "Homo sapiens, Prostate Cancer", "source_text": "as §1"}, "HCT-116": {"system": "HCT-116", "assay": "NCI-60 growth inhibition, HCT-116", "assay_type": "cell-based", "conditions": "Homo sapiens, Colon Cancer", "source_text": "as §1"}, "tubulin": {"system": "tubulin", "assay": "Inhibition of [3H]colchicine binding to tubulin", "design": "species or system Bovine", "conditions": "compound at 5 μM, 5.0 µM [3H]colchicine, 1.0 µM tubulin", "method": "Bovine brain tubulin was purified as described previously. The tubulin assembly assay has been described in detail. Briefly, 1.0 mg/mL of tubulin (10 µM) was preincubated for 15 min at 30 °C in 0.8 M monosodium glutamate (pH of 2 M stock solution adjusted to 6.6 with HCl), varying compound concentrations and 4% (v/v) DMSO as compound solvent. After the preincubation, the reaction mixtures were placed on ice and 0.4 mM GTP was added. The reaction mixtures were transferred to cuvettes at 0 °C in a recording spectrophotometer equipped with an electronic temperature controller. After baselines were established, the temperature was elevated over about 30 s to 30 °C, and changes in turbidity were monitored at 350 nm for 20 min. The compound concentration that caused a 50% reduction in increase in turbidity, interpolated from the values obtained with defined compound concentrations, was defined as the IC50 value. The assay to measure inhibition of [^3H]colchicine binding was described in detail previously. Briefly, 0.1 mg/mL (1.0 µM) tubulin was incubated at 37 °C with 5.0 µM [3H]colchicine and potential inhibitors at 5.0 µM. […] The [^3H]colchicine was a product of PerkinElmer, USA."}, "TK-10": {"system": "TK-10", "assay": "NCI-60 growth inhibition, TK-10", "assay_type": "cell-based", "conditions": "Homo sapiens, Renal Cancer", "source_text": "as §1"}, "ACHN": {"system": "ACHN", "assay": "NCI-60 growth inhibition, ACHN", "assay_type": "cell-based", "conditions": "Homo sapiens, Renal Cancer", "source_text": "as §1"}, "SK-MEL-28": {"system": "SK-MEL-28", "assay": "NCI-60 growth inhibition, SK-MEL-28", "assay_type": "cell-based", "conditions": "Homo sapiens, Melanoma", "source_text": "as §1"}, "SK-MEL-2": {"system": "SK-MEL-2", "assay": "NCI-60 growth inhibition, SK-MEL-2", "assay_type": "cell-based", "conditions": "Homo sapiens, Melanoma", "source_text": "as §1"}, "RPMI-8226": {"system": "RPMI-8226", "assay": "NCI-60 growth inhibition, RPMI-8226", "assay_type": "cell-based", "conditions": "Homo sapiens, Leukemia", "source_text": "as §1"}, "HS 578T": {"system": "HS 578T", "assay": "NCI-60 growth inhibition, HS 578T", "assay_type": "cell-based", "conditions": "Homo sapiens, Breast Cancer", "source_text": "as §1"}, "HT29": {"system": "HT29", "assay": "NCI-60 growth inhibition, HT29", "assay_type": "cell-based", "conditions": "Homo sapiens, HT-29, Colon Cancer", "source_text": "as §1"}, "Bovine brain tubulin": {"system": "Bovine brain tubulin", "assay": "Inhibition of purified tubulin assembly (turbidity)", "assay_type": "biochemical", "conditions": "10 µM tubulin, 30 °C; read-out: Inhibition of Tubulin Assembly IC50 ± SD", "method": "Bovine brain tubulin was purified as described previously. The tubulin assembly assay has been described in detail. Briefly, 1.0 mg/mL of tubulin (10 µM) was preincubated for 15 min at 30 °C in 0.8 M monosodium glutamate (pH of 2 M stock solution adjusted to 6.6 with HCl), varying compound concentrations and 4% (v/v) DMSO as compound solvent. After the preincubation, the reaction mixtures were placed on ice and 0.4 mM GTP was added. The reaction mixtures were transferred to cuvettes at 0 °C in a recording spectrophotometer equipped with an electronic temperature controller. After baselines were established, the temperature was elevated over about 30 s to 30 °C, and changes in turbidity were monitored at 350 nm for 20 min. The compound concentration that caused a 50% reduction in increase in turbidity, interpolated from the values obtained with defined compound concentrations, was defined as the IC50 value. The assay to measure inhibition of [^3H]colchicine binding was described in detail previously. Briefly, 0.1 mg/mL (1.0 µM) tubulin was incubated at 37 °C with 5.0 µM [3H]colchicine and potential inhibitors at 5.0 µM. Incubation was for 10 min, at which point the reaction had reached 40–60% of the maximum colchicine that can be bound in reaction mixtures without inhibitor. The [^3H]colchicine was a product of PerkinElmer, USA. CA-4 was a generous gift of Dr. G. R. Pettit, Arizona State University."}, "SK-OV-3 MDR1-M6/6 cells": {"system": "SK-OV-3 MDR1-M6/6 cells", "assay": "SRB assay in Pgp-expressing SK-OV-3 MDR1-M6/6 cells", "assay_type": "cell-based", "conditions": "Homo sapiens, SKOV3-MDR1-M6/6, read-out: IC50 ± SD in SK-OV-3 MDR1-M6/6 Cells", "method": "Comparison of the IC50 values in the parental SK-OV-3 and genetically manipulated SK-OV-3 MDR1-M6/6 cell line allows for the calculation of a relative resistance value, designated Rr. This value is calculated by dividing the IC50 value obtained in the Pgp-expressing SK-OV-3 MDR1-M6/6 cells by the IC50 obtained in the parental SK-OV-3 cells.\nThe antiproliferative and cytotoxic effects of the compounds in cancer cells were evaluated using the SRB assay as previously described. MDA-MB-435 cells were obtained from the Lombardi Cancer Center of Georgetown University (Washington, DC, USA). SK-OV-3 and HeLa cells were purchased from ATCC. Details about the generation of the SK-OV-3 MDR1-M6/6 and HeLa WTβIII cells were described previously. The IC50 values represent an average of three independent experiments, each conducted using triplicate points.\nHeLa, A-10, SK-OV-3, and SK-OV-3 MDR1-M6/6 cells were grown in Basal Medium Eagle (Sigma-Aldrich, St. Louis, MO, USA) supplemented with 10% FBS (Hyclone, GE Life Sciences, Logan, UT, USA) 1% GlutaMAX (Gibco, Life Technologies, Waltham, MA, USA) and 50 µg/mL gentamycin (Life Technologies, USA). HeLa WTβIII cells were grown in Dulbecco’s Modified Eagle Medium (Life Technologies) supplemented with 10% FBS and 50 µg/mL gentamycin. MDA-MB-435 cells were maintained in Improved Minimum Essential Medium (Life Technologies) supplemented with 10% FBS and 25 µg/mL gentamycin. All cells were grown at 37 °C in a humidified environment with 5% CO2."}, "NCI-H522": {"system": "NCI-H522", "assay": "NCI-60 growth inhibition, NCI-H522", "assay_type": "cell-based", "conditions": "Homo sapiens, NSCLC", "source_text": "as §1"}, "SNB-75": {"system": "SNB-75", "assay": "NCI-60 growth inhibition, SNB-75", "assay_type": "cell-based", "conditions": "Homo sapiens, CNS Cancer", "source_text": "as §1"}, "CAKI-1": {"system": "CAKI-1", "assay": "NCI-60 growth inhibition, CAKI-1", "assay_type": "cell-based", "conditions": "Homo sapiens, Renal Cancer", "source_text": "as §1"}, "NCI-H23": {"system": "NCI-H23", "assay": "NCI-60 growth inhibition, NCI-H23", "assay_type": "cell-based", "conditions": "Homo sapiens, NSCLC", "source_text": "as §1"}, "NCI-H322M": {"system": "NCI-H322M", "assay": "NCI-60 growth inhibition, NCI-H322M", "assay_type": "cell-based", "conditions": "Homo sapiens, NSCLC", "source_text": "as §1"}}, "data": [{"smiles": "COc1ccc(N(C)c2nc(N)nc3sc4c(c23)CCCC4)cc1", "note": "[Compound 4, N4-(4-methoxyphenyl)-N4-methyl-5,6,7,8-tetrahydrobenzo[4,5]thieno[2,3-d]pyrimidine-2,4-diamine]", "values": [{"measurement": "GI50", "setting": "UACC-257", "value": 18.4, "unit": "nM"}, {"measurement": "GI50", "setting": "DU-145", "value": 15.6, "unit": "nM"}, {"measurement": "GI50", "setting": "HCT-116", "value": 5.46, "unit": "nM"}, {"measurement": "Inhibition of Colchicine Binding (% inhibition ± SD)", "setting": "tubulin", "value": "99.0 ± 1.0", "unit": "%"}, {"measurement": "GI50", "setting": "TK-10", "value": 14.2, "unit": "nM"}, {"measurement": "GI50", "setting": "ACHN", "value": 10.2, "unit": "nM"}, {"measurement": "GI50", "setting": "SK-MEL-28", "value": 12.1, "unit": "nM"}, {"measurement": "GI50", "setting": "SK-MEL-2", "value": 11.8, "unit": "nM"}, {"measurement": "GI50", "setting": "RPMI-8226", "value": 12.7, "unit": "nM"}, {"measurement": "GI50", "setting": "HS 578T", "value": 13.5, "unit": "nM"}, {"measurement": "GI50", "setting": "HT29", "value": 6.21, "unit": "nM"}, {"measurement": "IC50", "setting": "Bovine brain tubulin", "value": "820 ± 40", "unit": "nM"}, {"measurement": "IC50", "setting": "SK-OV-3 MDR1-M6/6 cells", "value": "17.5 ± 0.8", "unit": "nM"}, {"measurement": "GI50", "setting": "NCI-H522", "value": 6.87, "unit": "nM"}, {"measurement": "GI50", "setting": "SNB-75", "value": 8.42, "unit": "nM"}, {"measurement": "GI50", "setting": "CAKI-1", "value": 16.8, "unit": "nM"}, {"measurement": "GI50", "setting": "NCI-H23", "value": 11.3, "unit": "nM"}, {"measurement": "GI50", "setting": "NCI-H322M", "value": 11.6, "unit": "nM"}]}]}
